These results are taken from ChEMBL document CHEMBL3217607, “Discovery and structural modification of novel inhibitors of PTP1B inspired by the ACT fragment of scleritodermin A” (Medchemcomm, 2011).

A value given as a limit tells only on which side of the number the result lay.

In experiment [1] the target is Tyrosine-protein phosphatase non-receptor type 6 (Homo sapiens, UniProt P29350). As to the kind of experiment: Inhibition of SHP1 (unknown origin) using 3-O-Methylfluorescein phosphate as substrate preincubated for 3 mins followed by substrate addition.
In experiment [2] the target is T1, Tyrosine-protein phosphatase non-receptor type 2 (Homo sapiens, UniProt P17706).
T1 sequence (P17706 whole entry): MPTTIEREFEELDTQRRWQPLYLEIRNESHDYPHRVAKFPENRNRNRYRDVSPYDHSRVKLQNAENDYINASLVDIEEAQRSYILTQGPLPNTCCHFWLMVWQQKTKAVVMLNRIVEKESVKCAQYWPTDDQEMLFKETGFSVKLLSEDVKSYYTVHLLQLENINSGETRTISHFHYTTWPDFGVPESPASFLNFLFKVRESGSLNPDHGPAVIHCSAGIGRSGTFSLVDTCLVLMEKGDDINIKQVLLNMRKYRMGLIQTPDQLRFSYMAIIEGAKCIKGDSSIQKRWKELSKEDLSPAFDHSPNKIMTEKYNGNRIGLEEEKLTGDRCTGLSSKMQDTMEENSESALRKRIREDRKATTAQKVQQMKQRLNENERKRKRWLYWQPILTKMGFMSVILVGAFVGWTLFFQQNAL
The experiment in a line: Inhibition of TCPTP (unknown origin).

Experiment [3] concerns the target T2, Tyrosine-protein phosphatase non-receptor type 1 (Homo sapiens, UniProt P18031).
T2 sequence (P18031 whole entry): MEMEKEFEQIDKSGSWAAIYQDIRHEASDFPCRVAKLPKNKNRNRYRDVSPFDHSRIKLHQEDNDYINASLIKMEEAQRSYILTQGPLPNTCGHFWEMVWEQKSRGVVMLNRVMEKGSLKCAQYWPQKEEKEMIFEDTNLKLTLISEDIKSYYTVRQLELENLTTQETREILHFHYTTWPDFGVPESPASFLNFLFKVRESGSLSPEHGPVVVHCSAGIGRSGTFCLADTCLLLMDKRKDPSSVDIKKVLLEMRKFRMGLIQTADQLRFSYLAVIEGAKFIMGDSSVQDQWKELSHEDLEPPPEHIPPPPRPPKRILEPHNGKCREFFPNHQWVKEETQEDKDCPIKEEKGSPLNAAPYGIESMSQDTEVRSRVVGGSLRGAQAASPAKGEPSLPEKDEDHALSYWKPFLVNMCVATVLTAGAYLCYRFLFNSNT
The experiment in a line: Inhibition of GST-tagged PTP1B (unknown origin) using pNPP as substrate measured for 2 mins by spectrophotometry.

The target in experiment [4] is Receptor-type tyrosine-protein phosphatase F (Homo sapiens, UniProt P10586). The experiment in a line: Inhibition of LAR (unknown origin) using 3-O-Methylfluorescein phosphate as substrate preincubated for 3 mins followed by substrate addition.
Experiment [5] addresses T3, M-phase inducer phosphatase 2 (Homo sapiens, UniProt P30305).
T3 sequence (P30305 whole entry): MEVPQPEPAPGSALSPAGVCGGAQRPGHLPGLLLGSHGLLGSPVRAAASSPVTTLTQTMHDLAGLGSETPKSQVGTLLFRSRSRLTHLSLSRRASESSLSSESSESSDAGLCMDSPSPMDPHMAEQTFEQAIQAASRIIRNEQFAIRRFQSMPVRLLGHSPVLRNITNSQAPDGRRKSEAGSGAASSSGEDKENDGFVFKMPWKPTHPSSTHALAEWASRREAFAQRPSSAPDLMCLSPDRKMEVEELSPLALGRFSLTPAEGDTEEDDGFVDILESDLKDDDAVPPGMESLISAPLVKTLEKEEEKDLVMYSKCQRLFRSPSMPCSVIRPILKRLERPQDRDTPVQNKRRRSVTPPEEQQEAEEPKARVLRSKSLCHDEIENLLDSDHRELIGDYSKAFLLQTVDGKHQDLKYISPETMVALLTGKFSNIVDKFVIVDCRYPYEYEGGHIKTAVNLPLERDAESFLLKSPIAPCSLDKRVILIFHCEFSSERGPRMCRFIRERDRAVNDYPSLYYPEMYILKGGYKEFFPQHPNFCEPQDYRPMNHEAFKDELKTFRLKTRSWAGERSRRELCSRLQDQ
As to the kind of experiment: Inhibition of CDC25B (unknown origin) using 3-O-Methylfluorescein phosphate as substrate preincubated for 3 mins followed by substrate addition.

Experiment [6] concerns the target T4, Tyrosine-protein phosphatase non-receptor type 11 (Homo sapiens, UniProt Q06124).
T4 sequence (Q06124 whole entry): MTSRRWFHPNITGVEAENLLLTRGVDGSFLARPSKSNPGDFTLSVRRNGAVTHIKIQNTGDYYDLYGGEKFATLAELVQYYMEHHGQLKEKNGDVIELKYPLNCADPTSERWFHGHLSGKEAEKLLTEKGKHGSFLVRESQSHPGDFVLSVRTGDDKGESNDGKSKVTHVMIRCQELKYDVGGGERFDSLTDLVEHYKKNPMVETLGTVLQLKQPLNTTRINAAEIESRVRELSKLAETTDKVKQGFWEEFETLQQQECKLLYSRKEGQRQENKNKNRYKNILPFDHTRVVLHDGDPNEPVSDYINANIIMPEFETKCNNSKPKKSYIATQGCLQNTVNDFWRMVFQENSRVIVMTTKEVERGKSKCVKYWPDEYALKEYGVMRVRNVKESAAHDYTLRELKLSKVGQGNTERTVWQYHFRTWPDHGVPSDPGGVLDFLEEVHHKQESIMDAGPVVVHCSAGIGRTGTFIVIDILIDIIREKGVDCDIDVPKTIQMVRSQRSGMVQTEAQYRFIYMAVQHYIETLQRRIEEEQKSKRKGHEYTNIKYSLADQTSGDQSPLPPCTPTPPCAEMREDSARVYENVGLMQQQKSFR
The experiment in a line: Inhibition of SHP2 (unknown origin) using 3-O-Methylfluorescein phosphate as substrate preincubated for 3 mins followed by substrate addition.

Sequence of Tyrosine-protein phosphatase non-receptor type 6 (P29350 whole entry): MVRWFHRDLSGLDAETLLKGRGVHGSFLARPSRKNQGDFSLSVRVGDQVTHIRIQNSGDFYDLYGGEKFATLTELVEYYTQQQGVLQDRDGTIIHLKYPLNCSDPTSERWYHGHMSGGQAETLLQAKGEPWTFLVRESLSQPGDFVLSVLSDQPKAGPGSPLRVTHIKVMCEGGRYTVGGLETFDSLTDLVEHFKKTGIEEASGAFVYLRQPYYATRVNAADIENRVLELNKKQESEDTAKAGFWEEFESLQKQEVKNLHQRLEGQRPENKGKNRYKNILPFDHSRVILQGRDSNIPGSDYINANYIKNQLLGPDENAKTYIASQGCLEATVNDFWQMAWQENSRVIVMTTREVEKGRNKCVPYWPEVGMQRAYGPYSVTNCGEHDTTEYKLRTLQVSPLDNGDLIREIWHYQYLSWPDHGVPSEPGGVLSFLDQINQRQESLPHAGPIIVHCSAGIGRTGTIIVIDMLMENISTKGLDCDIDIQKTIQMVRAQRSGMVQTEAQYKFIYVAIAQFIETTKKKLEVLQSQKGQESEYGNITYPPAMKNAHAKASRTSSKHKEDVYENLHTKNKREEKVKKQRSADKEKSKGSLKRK
Sequence of Receptor-type tyrosine-protein phosphatase F (P10586 whole entry): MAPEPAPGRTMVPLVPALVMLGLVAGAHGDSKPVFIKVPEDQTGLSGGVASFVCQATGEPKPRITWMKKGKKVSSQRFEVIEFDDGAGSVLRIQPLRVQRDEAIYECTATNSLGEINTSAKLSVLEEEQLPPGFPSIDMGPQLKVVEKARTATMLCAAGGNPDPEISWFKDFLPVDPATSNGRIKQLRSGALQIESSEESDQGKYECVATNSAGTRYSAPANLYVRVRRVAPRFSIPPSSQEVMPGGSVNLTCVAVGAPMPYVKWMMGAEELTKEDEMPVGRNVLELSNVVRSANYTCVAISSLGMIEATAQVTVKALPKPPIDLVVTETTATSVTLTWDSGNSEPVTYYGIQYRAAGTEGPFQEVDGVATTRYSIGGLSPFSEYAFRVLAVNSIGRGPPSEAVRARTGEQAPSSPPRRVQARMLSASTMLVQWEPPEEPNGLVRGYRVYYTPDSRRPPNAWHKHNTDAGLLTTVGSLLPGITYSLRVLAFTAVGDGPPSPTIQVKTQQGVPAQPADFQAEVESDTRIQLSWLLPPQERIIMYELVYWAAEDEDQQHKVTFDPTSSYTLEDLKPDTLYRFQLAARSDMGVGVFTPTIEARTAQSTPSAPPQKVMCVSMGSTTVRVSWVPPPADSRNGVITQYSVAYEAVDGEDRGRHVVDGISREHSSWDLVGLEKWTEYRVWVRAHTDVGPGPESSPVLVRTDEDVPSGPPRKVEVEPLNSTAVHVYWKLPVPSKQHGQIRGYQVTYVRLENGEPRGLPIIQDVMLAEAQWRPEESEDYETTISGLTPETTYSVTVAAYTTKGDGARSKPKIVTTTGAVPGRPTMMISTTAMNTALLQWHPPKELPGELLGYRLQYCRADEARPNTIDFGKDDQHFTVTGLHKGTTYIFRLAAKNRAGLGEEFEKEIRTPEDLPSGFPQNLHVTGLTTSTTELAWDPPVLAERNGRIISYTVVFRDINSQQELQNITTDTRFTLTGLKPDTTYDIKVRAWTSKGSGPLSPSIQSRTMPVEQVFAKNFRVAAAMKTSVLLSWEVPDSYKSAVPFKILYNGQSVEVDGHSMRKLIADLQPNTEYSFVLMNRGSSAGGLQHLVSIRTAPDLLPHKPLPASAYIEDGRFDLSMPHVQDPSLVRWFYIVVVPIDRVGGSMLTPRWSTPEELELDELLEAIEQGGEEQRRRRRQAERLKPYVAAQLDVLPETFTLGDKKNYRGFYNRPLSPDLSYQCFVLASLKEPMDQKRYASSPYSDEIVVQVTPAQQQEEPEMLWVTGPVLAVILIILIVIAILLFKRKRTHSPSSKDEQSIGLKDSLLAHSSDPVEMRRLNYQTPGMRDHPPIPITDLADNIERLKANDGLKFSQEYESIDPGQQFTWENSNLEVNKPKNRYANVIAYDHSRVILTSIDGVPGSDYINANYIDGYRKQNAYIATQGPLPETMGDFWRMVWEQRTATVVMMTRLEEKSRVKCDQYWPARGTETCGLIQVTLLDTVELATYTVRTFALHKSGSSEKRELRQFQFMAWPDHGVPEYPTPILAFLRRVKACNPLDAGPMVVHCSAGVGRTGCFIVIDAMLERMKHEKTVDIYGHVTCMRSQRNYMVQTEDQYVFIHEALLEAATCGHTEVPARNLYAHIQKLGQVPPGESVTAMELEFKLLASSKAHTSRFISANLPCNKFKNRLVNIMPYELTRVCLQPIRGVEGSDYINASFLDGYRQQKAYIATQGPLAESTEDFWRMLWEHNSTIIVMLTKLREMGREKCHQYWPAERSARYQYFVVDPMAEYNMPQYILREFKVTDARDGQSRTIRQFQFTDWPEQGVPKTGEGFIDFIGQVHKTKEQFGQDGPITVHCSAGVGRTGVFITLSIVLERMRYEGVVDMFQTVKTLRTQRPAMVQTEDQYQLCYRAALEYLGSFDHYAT

As for `C/C(=C/C(C)=C/c1csc([C@H](Cc2ccc(OCc3ccccc3)cc2)NC(=O)CCc2c[nH]c3ccccc23)n1)C(=O)OCC(=O)O`, the 50% inhibitory concentration (IC50) was 15 µM in experiment [1]; 8.72 µM in experiment [2]; 2.32 µM in experiment [3]; > 20 µM in experiment [4]; 4.82 µM in experiment [5]; 19.1 µM in experiment [6].
Consider `CCOC(=O)COC(=O)/C(C)=C\C(C)=C\c1csc([C@H](Cc2ccc(OCc3ccccc3)cc2)NC(=O)CCc2c[nH]c3ccccc23)n1`, for which the IC50 in experiment [1] is > 20 µM; in experiment [2], 12.8 µM; in experiment [3] it was 5.43 µM; in experiment [4] it was > 20 µM; in experiment [5] it was 3.66 µM; in experiment [6], > 20 µM.

As usually defined, the IC50 is the concentration needed to halve the response being measured.
